Reference: patent US5326788A, “Biological fluid purification system” (priority 1992, dated 1994)

Tests used:
[1] = test system: HIV-1 env; experiment: Syncytia assay, cell line expressing only envelope proteins of HIV-1 IIIb with Supt-1 cells; format: cell-based; details: for syncytia score (number 0-4, size S/M/L): 24 hours
Experimental: In order to assess the effects of Hy and Ps on the ability of HIV to form syncytia, the following experiments were performed. For the analysis of HIV-1, an entry syncytia assay was performed by co-culturing H9 cells (described in Popovic, M. et al. Science 224: 497-500, 1984) infected with the IIIb isolate of HIV with uninfected Supt-1 cells (Walker, B. D. et al. Proc. Nat. Acad. Sci. (USA) 84: 8120-8124, 1987) as the target cell. HIV-2 was tested using HUT78 cells (obtained from the National Institute of Health by reference to Depository Catalog, Reagent Program, Bethesda, Md.) infected with the ROD-2 isolate of HIV-2 co-cultured with uninfected H9 target cells. The infected cells were plated in 96 well plates (10^4 cells per well in RPM1 1640 medium with 10% fetal calf serum) and incubated with or without dilutions of Ps or Hy for 30 minutes at 37° C. 1×10^5 target cells were then added per well and the number of syncytia were quantitatively and qualitatively determined after 24 hours.
Also tested in a syncytia assay was a constructed cell line expressing only the envelope proteins of HIV-1 type IIIb isolate (Walker, B. D. et al., supra). These cells, designated HIV-1 env in Table 6, were treated with the indicated concentrations of Ps or Hy and incubated with uninfected Supt-1 target cells as above.

[2] = test system: HIV; experiment: Incubation time of free HIV virus with hypericin needed to inhibit infectivity; format: cell-based, Human Immunodeficiency Virus (HIV)
[3] = Addition of hypericin to whole blood: standard blood chemistries, complete blood count, coagulation profile; set-up: species or system human; MCV / MCH / MCHC / Bilirubin (direct): unit not given here
Experimental: Triplicate samples of blood were drawn from two normal individuals directly into vacuum tubes. Into one set of tubes was added hypericin dissolved in 10% ethanol, 40% propylene glycol, 50% water to a final concentration of hypericin of 0.1 micrograms/ml of blood. A second set of tubes received hypericin at 1.0 micrograms/ml of blood. The final concentration of ethanol was 0.01% and of propylene glycol 0.04% in each sample, respectively. The third set served as an untreated control. Hypericin-treated and untreated samples were taken directly to a clinical laboratory for testing of standard blood chemistries, complete blood count, and a coagulation profile.

In the case of `Cc1cc(O)c2c(=O)c3c(O)cc(O)c4c5c(O)cc(O)c6c(=O)c7c(O)cc(C)c8c1c2c(c34)c(c78)c65` [hypericin], the “syncytia score (number 0-4, size S/M/L)” value ([1]; 7 nanograms) is reported as 4 L, the “syncytia score (number 0-4, size S/M/L)” value ([1]; 14 nanograms) is reported as 4 L and the “syncytia score (number 0-4, size S/M/L)” value ([1]; 28 nanograms) is reported as 4 L. For the same molecule, the “syncytia score (number 0-4, size S/M/L)” value ([1]; 56 nanograms) was 4 L, the “syncytia score (number 0-4, size S/M/L)” value ([1]; 112 nanograms) was 3 M and the “syncytia score (number 0-4, size S/M/L)” value ([1]; 225 nanograms) was 0. The “syncytia score (number 0-4, size S/M/L)” value ([1]; 450 nanograms) was 0, the “syncytia score (number 0-4, size S/M/L)” value ([1]; 900 nanograms) was 0 and the “syncytia score (number 0-4, size S/M/L)” value ([1]; 1800 nanograms) was 0. The “inhibition of the viral entry process (comparison)” value ([1]; HIV-1 env cells and live virus assays) was “more effective than pseudohypericin”, the “inhibition of virus infectivity” value ([2]; 10 and 5 minutes incubation) was “complete” and the “inhibition of virus infectivity” value ([2]; only the time to add compound and centrifuge) was “significant inhibition”. The “effect on blood chemistries and hematologic parameters (summary)” value ([3]; 1.0 and 0.1 micrograms/ml) was “no significant effect”, the BUN ([3]; Subject #1, 0.1 micrograms/ml) was 13 mg/dL and the Bilirubin ([3]; Subject #1, 0.1 micrograms/ml) was 0.5 mg/dL. For the same molecule, the “Bilirubin (direct)” value ([3]; Subject #1, 0.1 micrograms/ml) was 0.1, the CO2 ([3]; Subject #1, 0.1 micrograms/ml) was 28 meq/l and the “Ca^+” value ([3]; Subject #1, 0.1 micrograms/ml) was 10.1 mg/dL. For the same molecule, the “Cl^-” value ([3]; Subject #1, 0.1 micrograms/ml) was 106 meq/l, the Creat ([3]; Subject #1, 0.1 micrograms/ml) was 0.9 mg/dL and the ESR ([3]; Subject #1, 0.1 micrograms/ml) was 5 mm/hr. The Hb ([3]; Subject #1, 0.1 micrograms/ml) was 15.8 gm/dl, the Hct ([3]; Subject #1, 0.1 micrograms/ml) was 46.7% and the “K^+” value ([3]; Subject #1, 0.1 micrograms/ml) was 4.2 meq/l. For the same molecule, the LDH ([3]; Subject #1, 0.1 micrograms/ml) was 154 IU/l, the MCH ([3]; Subject #1, 0.1 micrograms/ml) was 30.8 and the MCHC ([3]; Subject #1, 0.1 micrograms/ml) was 33.8. For the same molecule, the MCV ([3]; Subject #1, 0.1 micrograms/ml) was 91.0, the “Na^+” value ([3]; Subject #1, 0.1 micrograms/ml) was 140 meq/l and the SGOT ([3]; Subject #1, 0.1 micrograms/ml) was 19 IU/l. The WBC ([3]; Subject #1, 0.1 micrograms/ml) was 8.1 /cu mm, the albumin ([3]; Subject #1, 0.1 micrograms/ml) was 4.8 gm/dl and the alk phos ([3]; Subject #1, 0.1 micrograms/ml) was 76 IU/l. It also gave a cholesterol ([3]; Subject #1, 0.1 micrograms/ml) of 255 mg/dL, a glucose ([3]; Subject #1, 0.1 micrograms/ml) of 107 mg/dL and a lymphs ([3]; Subject #1, 0.1 micrograms/ml) of 34.9%. The monos ([3]; Subject #1, 0.1 micrograms/ml) was 4.2%, the neutr ([3]; Subject #1, 0.1 micrograms/ml) was 60.9% and the phosphate ([3]; Subject #1, 0.1 micrograms/ml) was 3.7 mg/dL. For the same molecule, the total protein ([3]; Subject #1, 0.1 micrograms/ml) was 7.5 gm/dl, the uric acid ([3]; Subject #1, 0.1 micrograms/ml) was 5.7 mg/dL and the BUN ([3]; Subject #1, 1.0 micrograms/ml) was 12 mg/dL. For the same molecule, the Bilirubin ([3]; Subject #1, 1.0 micrograms/ml) was 0.5 mg/dL, the “Bilirubin (direct)” value ([3]; Subject #1, 1.0 micrograms/ml) was 0.1 and the CO2 ([3]; Subject #1, 1.0 micrograms/ml) was 28 meq/l. For the same molecule, the “Ca^+” value ([3]; Subject #1, 1.0 micrograms/ml) was 10.2 mg/dL, the “Cl^-” value ([3]; Subject #1, 1.0 micrograms/ml) was 106 meq/l and the Creat ([3]; Subject #1, 1.0 micrograms/ml) was 0.9 mg/dL. The ESR ([3]; Subject #1, 1.0 micrograms/ml) was 4 mm/hr, the Hb ([3]; Subject #1, 1.0 micrograms/ml) was 16.0 gm/dl and the Hct ([3]; Subject #1, 1.0 micrograms/ml) was 47.6%. For the same molecule, the “K^+” value ([3]; Subject #1, 1.0 micrograms/ml) was 4.3 meq/l, the LDH ([3]; Subject #1, 1.0 micrograms/ml) was 153 IU/l and the MCH ([3]; Subject #1, 1.0 micrograms/ml) was 30.6. The MCHC ([3]; Subject #1, 1.0 micrograms/ml) was 33.6, the MCV ([3]; Subject #1, 1.0 micrograms/ml) was 91.1 and the “Na^+” value ([3]; Subject #1, 1.0 micrograms/ml) was 137 meq/l. The SGOT ([3]; Subject #1, 1.0 micrograms/ml) was 15 IU/l, the WBC ([3]; Subject #1, 1.0 micrograms/ml) was 8.0 /cu mm and the albumin ([3]; Subject #1, 1.0 micrograms/ml) was 4.8 gm/dl. It also gave an alk phos ([3]; Subject #1, 1.0 micrograms/ml) of 75 IU/l, a cholesterol ([3]; Subject #1, 1.0 micrograms/ml) of 258 mg/dL and a glucose ([3]; Subject #1, 1.0 micrograms/ml) of 105 mg/dL. For the same molecule, the lymphs ([3]; Subject #1, 1.0 micrograms/ml) was 32.9%, the monos ([3]; Subject #1, 1.0 micrograms/ml) was 5.5% and the neutr ([3]; Subject #1, 1.0 micrograms/ml) was 61.6%. For the same molecule, the phosphate ([3]; Subject #1, 1.0 micrograms/ml) was 3.6 mg/dL, the total protein ([3]; Subject #1, 1.0 micrograms/ml) was 7.5 gm/dl and the uric acid ([3]; Subject #1, 1.0 micrograms/ml) was 5.6 mg/dL. The BUN ([3]; Subject #2, 0.1 micrograms/ml) was 9 mg/dL, the Bilirubin ([3]; Subject #2, 0.1 micrograms/ml) was 0.5 mg/dL and the “Bilirubin (direct)” value ([3]; Subject #2, 0.1 micrograms/ml) was 0.1. For the same molecule, the CO2 ([3]; Subject #2, 0.1 micrograms/ml) was 27 meq/l, the “Ca^+” value ([3]; Subject #2, 0.1 micrograms/ml) was 9.5 mg/dL and the “Cl^-” value ([3]; Subject #2, 0.1 micrograms/ml) was 108 meq/l. The Creat ([3]; Subject #2, 0.1 micrograms/ml) was 0.7 mg/dL, the ESR ([3]; Subject #2, 0.1 micrograms/ml) was 1 mm/hr and the Hb ([3]; Subject #2, 0.1 micrograms/ml) was 13.0 gm/dl. For the same molecule, the Hct ([3]; Subject #2, 0.1 micrograms/ml) was 37.8%, the “K^+” value ([3]; Subject #2, 0.1 micrograms/ml) was 4.4 meq/l and the LDH ([3]; Subject #2, 0.1 micrograms/ml) was 110 IU/L. For the same molecule, the MCH ([3]; Subject #2, 0.1 micrograms/ml) was 31.4, the MCHC ([3]; Subject #2, 0.1 micrograms/ml) was 34.4 and the MCV ([3]; Subject #2, 0.1 micrograms/ml) was 91.4. The “Na^+” value ([3]; Subject #2, 0.1 micrograms/ml) was 140 meq/l, the SGOT ([3]; Subject #2, 0.1 micrograms/ml) was 15 IU/L and the WBC ([3]; Subject #2, 0.1 micrograms/ml) was 6.7 /cu mm. It also gave an albumin ([3]; Subject #2, 0.1 micrograms/ml) of 4.5 gm/dl, an alk phos ([3]; Subject #2, 0.1 micrograms/ml) of 51 IU/l and a cholestrol ([3]; Subject #2, 0.1 micrograms/ml) of 133 mg/dL. The glucose ([3]; Subject #2, 0.1 micrograms/ml) was 96 mg/dL, the lymphs ([3]; Subject #2, 0.1 micrograms/ml) was 33.1% and the monos ([3]; Subject #2, 0.1 micrograms/ml) was 4.9%. The neutr ([3]; Subject #2, 0.1 micrograms/ml) was 62.0%, the phosphate ([3]; Subject #2, 0.1 micrograms/ml) was 3.0 mg/dL and the total protein ([3]; Subject #2, 0.1 micrograms/ml) was 6.4 g/dL. For the same molecule, the uric acid ([3]; Subject #2, 0.1 micrograms/ml) was 4.2 mg/dL, the BUN ([3]; Subject #2, 1.0 micrograms/ml) was 8 mg/dL and the Bilirubin ([3]; Subject #2, 1.0 micrograms/ml) was 0.5 mg/dL. The “Bilirubin (direct)” value ([3]; Subject #2, 1.0 micrograms/ml) was 0.1, the CO2 ([3]; Subject #2, 1.0 micrograms/ml) was 27 meq/l and the “Ca^+” value ([3]; Subject #2, 1.0 micrograms/ml) was 9.5 mg/dL. For the same molecule, the “Cl^-” value ([3]; Subject #2, 1.0 micrograms/ml) was 108 meq/l, the Creat ([3]; Subject #2, 1.0 micrograms/ml) was 0.6 mg/dL and the ESR ([3]; Subject #2, 1.0 micrograms/ml) was 1 mm/hr. For the same molecule, the Hb ([3]; Subject #2, 1.0 micrograms/ml) was 12.9 gm/dl, the Hct ([3]; Subject #2, 1.0 micrograms/ml) was 37.3% and the “K^+” value ([3]; Subject #2, 1.0 micrograms/ml) was 4.5 meq/l. It also gave an LDH ([3]; Subject #2, 1.0 micrograms/ml) of 97 IU/L, an MCH ([3]; Subject #2, 1.0 micrograms/ml) of 31.6 and an MCHC ([3]; Subject #2, 1.0 micrograms/ml) of 34.6. The MCV ([3]; Subject #2, 1.0 micrograms/ml) was 91.3, the “Na^+” value ([3]; Subject #2, 1.0 micrograms/ml) was 141 meq/l and the SGOT ([3]; Subject #2, 1.0 micrograms/ml) was 14 IU/L. The WBC ([3]; Subject #2, 1.0 micrograms/ml) was 6.4 /cu mm, the albumin ([3]; Subject #2, 1.0 micrograms/ml) was 4.4 gm/dl and the alk phos ([3]; Subject #2, 1.0 micrograms/ml) was 52 IU/l. It also gave a cholestrol ([3]; Subject #2, 1.0 micrograms/ml) of 131 mg/dL, a glucose ([3]; Subject #2, 1.0 micrograms/ml) of 95 mg/dL and a lymphs ([3]; Subject #2, 1.0 micrograms/ml) of 32.0. For the same molecule, the monos ([3]; Subject #2, 1.0 micrograms/ml) was 5.2%, the neutr ([3]; Subject #2, 1.0 micrograms/ml) was 62.8% and the phosphate ([3]; Subject #2, 1.0 micrograms/ml) was 3.1 mg/dL. For the same molecule, the total protein ([3]; Subject #2, 1.0 micrograms/ml) was 6.3 g/dL and the uric acid ([3]; Subject #2, 1.0 micrograms/ml) was 4.1 mg/dL.
